Key:
S. pneumoniae D39V [1] = assay: fitness (endpoint OD595 vs no drug) (fraction); higher = more growth
Summary of the method: (§1)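 Cultures at OD595 0.01 were dispensed into 384-well plates in TSB, LB Lennox or CY and incubated at 37 °C. Every 30 min for 14 h, OD595 was read and corrected by the first reading. Fitness is the optical density at entry into stationary phase relative to the robust mean of no-drug control wells, capped at 1.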

B. subtilis 168 [2] = assay: as above
Summary of the method: as §1

S. pneumoniae D39V [3] = assay: Bliss interaction score (quartile over a dose matrix) (fitness difference); higher = more antagonism (negative = synergy)
Summary of the method: (§2)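 Fitness is OD595 at stationary-phase entry relative to the plate's robust no-drug mean, capped at 1. Single-drug fitness was inferred from combinations. The Bliss score is observed minus product-expected fitness, summarised by quartiles over technical, biological and donor/recipient replicates.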

S. aureus DSM 20231 = assay: as above
Summary of the method: as §2

B. subtilis 168 [4] = assay: as above
Summary of the method: as §2

S. aureus Newman = assay: as above
Summary of the method: as §2
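Wherever Bliss interaction score (quartile over a dose matrix) is given: first quartile when negative (synergy) and third quartile when positive (antagonism).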

CCCCCCCCCC(=O)N[C@@H](Cc1c[nH]c2ccccc12)C(=O)N[C@H](CC(N)=O)C(=O)N[C@@H](CC(=O)O)C(=O)N[C@@H]1C(=O)NCC(=O)N[C@@H](CCCN)C(=O)N[C@@H](CC(=O)O)C(=O)N[C@H](C)C(=O)N[C@@H](CC(=O)O)C(=O)NCC(=O)N[C@H](CO)C(=O)N[C@@H]([C@H](C)CC(=O)O)C(=O)N[C@@H](CC(=O)c2ccccc2N)C(=O)O[C@@H]1C [Daptomycin] + C[C@H]1COc2c(N3CCN(C)CC3)c(F)cc3c(=O)c(C(=O)O)cn1c23 [Levofloxacin]
Conditions | fitness
B. subtilis 168 [2], first compound 0.125 µg/mL, partner 0.0312 µg/mL | 0.0386
B. subtilis 168 [2], first compound 0.125 µg/mL, partner 0.0625 µg/mL | 0.0435
B. subtilis 168 [2], first compound 0.125 µg/mL, partner 0.125 µg/mL | 0.0465
B. subtilis 168 [2], first compound 0.25 µg/mL, partner 0.002 µg/mL | 0.949
B. subtilis 168 [2], first compound 0.25 µg/mL, partner 0.0039 µg/mL | 0.95
B. subtilis 168 [2], first compound 0.25 µg/mL, partner 0.0312 µg/mL | 0.043
B. subtilis 168 [2], first compound 0.25 µg/mL, partner 0.0625 µg/mL | 0.0534
B. subtilis 168 [2], first compound 0.25 µg/mL, partner 0.125 µg/mL | 0.073
B. subtilis 168 [2], first compound 0.5 µg/mL, partner 0.002 µg/mL | 0.915
B. subtilis 168 [2], first compound 0.5 µg/mL, partner 0.0039 µg/mL | 0.904
B. subtilis 168 [2], first compound 0.5 µg/mL, partner 0.0312 µg/mL | 0.0448
B. subtilis 168 [2], first compound 0.5 µg/mL, partner 0.0625 µg/mL | 0.071
B. subtilis 168 [2], first compound 0.5 µg/mL, partner 0.125 µg/mL | 0.0639
S. pneumoniae D39V [1], first compound 1 µg/mL, partner 0.1725 µg/mL | 0.909
S. pneumoniae D39V [1], first compound 1 µg/mL, partner 0.2 µg/mL | 0.867
S. pneumoniae D39V [1], first compound 1 µg/mL, partner 0.345 µg/mL | 0.794
S. pneumoniae D39V [1], first compound 1 µg/mL, partner 0.4 µg/mL | 0.678
S. pneumoniae D39V [1], first compound 1 µg/mL, partner 0.69 µg/mL | 0.531
S. pneumoniae D39V [1], first compound 1 µg/mL, partner 0.8 µg/mL | 0.132
S. pneumoniae D39V [1], first compound 2 µg/mL, partner 0.1725 µg/mL | 0.917
S. pneumoniae D39V [1], first compound 2 µg/mL, partner 0.2 µg/mL | 0.88
S. pneumoniae D39V [1], first compound 2 µg/mL, partner 0.345 µg/mL | 0.813
S. pneumoniae D39V [1], first compound 2 µg/mL, partner 0.4 µg/mL | 0.675
S. pneumoniae D39V [1], first compound 2 µg/mL, partner 0.69 µg/mL | 0.366
S. pneumoniae D39V [1], first compound 2 µg/mL, partner 0.8 µg/mL | 0.165
S. pneumoniae D39V [1], first compound 4 µg/mL, partner 0.1725 µg/mL | 0.949
S. pneumoniae D39V [1], first compound 4 µg/mL, partner 0.2 µg/mL | 0.818
S. pneumoniae D39V [1], first compound 4 µg/mL, partner 0.345 µg/mL | 0.86
S. pneumoniae D39V [1], first compound 4 µg/mL, partner 0.4 µg/mL | 0.551
S. pneumoniae D39V [1], first compound 4 µg/mL, partner 0.69 µg/mL | 0.615
S. pneumoniae D39V [1], first compound 4 µg/mL, partner 0.8 µg/mL | 0.133

fitness, B. subtilis 168 [2], one replicate
Conditions | first compound 0.125 µg/mL | first compound 0.25 µg/mL | first compound 0.5 µg/mL | first compound 1 µg/mL
partner 0.001 µg/mL | 0.992 | ≥ 1 | 0.978 | –
partner 0.002 µg/mL | 0.949 | – | – | 0.753
partner 0.0039 µg/mL | 0.891 | – | – | 0.742
partner 0.0078 µg/mL | – | 0.829 | 0.882 | 0.723

Conditions | Bliss interaction score
B. subtilis 168 [4] | 0.0436
S. aureus DSM 20231 | -0.0494
S. aureus Newman | -0.0469
S. pneumoniae D39V [3] | -0.18

CCCCCCCCCC(=O)N[C@@H](Cc1c[nH]c2ccccc12)C(=O)N[C@H](CC(N)=O)C(=O)N[C@@H](CC(=O)O)C(=O)N[C@@H]1C(=O)NCC(=O)N[C@@H](CCCN)C(=O)N[C@@H](CC(=O)O)C(=O)N[C@H](C)C(=O)N[C@@H](CC(=O)O)C(=O)NCC(=O)N[C@H](CO)C(=O)N[C@@H]([C@H](C)CC(=O)O)C(=O)N[C@@H](CC(=O)c2ccccc2N)C(=O)O[C@@H]1C [Daptomycin] + C[C@H]1c2cccc(O)c2C(=O)C2=C(O)[C@]3(O)C(=O)C(C(N)=O)=C(O)[C@@H](N(C)C)[C@@H]3[C@@H](O)[C@@H]21 [Doxycycline]
fitness, one replicate
Conditions | first compound 1 µg/mL | first compound 2 µg/mL | first compound 4 µg/mL
B. subtilis 168 [2], partner 0.02 µg/mL | 0.624 | – | –
B. subtilis 168 [2], partner 0.04 µg/mL | 0.641 | – | –
B. subtilis 168 [2], partner 0.08 µg/mL | 0.188 | – | –
S. pneumoniae D39V [1], partner 0.003875 µg/mL | 0.928 | 0.934 | 0.981
S. pneumoniae D39V [1], partner 0.00775 µg/mL | 0.866 | 0.878 | 0.927

Conditions | fitness
B. subtilis 168 [2], first compound 0.125 µg/mL, partner 0.02 µg/mL | 0.857
B. subtilis 168 [2], first compound 0.125 µg/mL, partner 0.04 µg/mL | 0.794
B. subtilis 168 [2], first compound 0.125 µg/mL, partner 0.08 µg/mL | 0.605
B. subtilis 168 [2], first compound 0.25 µg/mL, partner 0.02 µg/mL | 0.871
B. subtilis 168 [2], first compound 0.25 µg/mL, partner 0.04 µg/mL | 0.757
B. subtilis 168 [2], first compound 0.25 µg/mL, partner 0.08 µg/mL | 0.595
B. subtilis 168 [2], first compound 0.5 µg/mL, partner 0.02 µg/mL | 0.83
B. subtilis 168 [2], first compound 0.5 µg/mL, partner 0.04 µg/mL | 0.771
S. pneumoniae D39V [1], first compound 1 µg/mL, partner 0.0155 µg/mL | 0.733
S. pneumoniae D39V [1], first compound 2 µg/mL, partner 0.0155 µg/mL | 0.738
S. pneumoniae D39V [1], first compound 4 µg/mL, partner 0.0155 µg/mL | 0.795

Conditions | Bliss interaction score
B. subtilis 168 [4] | 0.0559
S. aureus DSM 20231 | 0.0825
S. aureus Newman | 0.0504
S. pneumoniae D39V [3] | -0.249

C[C@H]1COc2c(N3CCN(C)CC3)c(F)cc3c(=O)c(C(=O)O)cn1c23 [Levofloxacin] + CC1=C\[C@@H](O)CC(=O)Cc2nc(co2)C(=O)N2CCC=C2C(=O)O[C@H](C(C)C)[C@H](C)/C=C/C(=O)NC\C=C\1 [Virginiamycin M1]
Conditions | fitness
B. subtilis 168 [2], first compound 0.0312 µg/mL, partner 0.0625 µg/mL | 0.0334
B. subtilis 168 [2], first compound 0.0312 µg/mL, partner 0.125 µg/mL | 0.0383
B. subtilis 168 [2], first compound 0.0312 µg/mL, partner 0.25 µg/mL | 0.0414
B. subtilis 168 [2], first compound 0.0625 µg/mL, partner 0.0625 µg/mL | 0.0348
B. subtilis 168 [2], first compound 0.0625 µg/mL, partner 0.125 µg/mL | 0.0328
B. subtilis 168 [2], first compound 0.0625 µg/mL, partner 0.25 µg/mL | 0.0437
B. subtilis 168 [2], first compound 0.125 µg/mL, partner 0.0625 µg/mL | 0.0353
B. subtilis 168 [2], first compound 0.125 µg/mL, partner 0.125 µg/mL | 0.0443
B. subtilis 168 [2], first compound 0.125 µg/mL, partner 0.25 µg/mL | 0.0489
S. pneumoniae D39V [1], first compound 0.1725 µg/mL, partner 0.5 µg/mL | 0.998
S. pneumoniae D39V [1], first compound 0.1725 µg/mL, partner 1 µg/mL | 0.992
S. pneumoniae D39V [1], first compound 0.1725 µg/mL, partner 2 µg/mL | 0.969
S. pneumoniae D39V [1], first compound 0.2 µg/mL, partner 2 µg/mL | 0.896
S. pneumoniae D39V [1], first compound 0.345 µg/mL, partner 0.5 µg/mL | 0.92
S. pneumoniae D39V [1], first compound 0.345 µg/mL, partner 1 µg/mL | 0.904
S. pneumoniae D39V [1], first compound 0.345 µg/mL, partner 2 µg/mL | 0.9
S. pneumoniae D39V [1], first compound 0.4 µg/mL, partner 2 µg/mL | 0.817
S. pneumoniae D39V [1], first compound 0.69 µg/mL, partner 0.5 µg/mL | 0.539
S. pneumoniae D39V [1], first compound 0.69 µg/mL, partner 1 µg/mL | 0.464
S. pneumoniae D39V [1], first compound 0.69 µg/mL, partner 2 µg/mL | 0.458
S. pneumoniae D39V [1], first compound 0.8 µg/mL, partner 2 µg/mL | 0.567

fitness, one replicate
Conditions | partner 0.0625 µg/mL | partner 0.125 µg/mL | partner 0.15 µg/mL | partner 0.25 µg/mL | partner 0.3 µg/mL | partner 0.5 µg/mL | partner 1 µg/mL
B. subtilis 168 [2], first compound 0.001 µg/mL | 0.869 | 0.947 | – | 0.969 | – | – | –
B. subtilis 168 [2], first compound 0.002 µg/mL | 0.949 | 0.971 | – | 0.936 | – | – | –
B. subtilis 168 [2], first compound 0.0039 µg/mL | 0.887 | 0.918 | – | 0.904 | – | – | –
S. pneumoniae D39V [1], first compound 0.2 µg/mL | – | – | 0.954 | – | 0.876 | 0.925 | 0.937
S. pneumoniae D39V [1], first compound 0.4 µg/mL | – | – | 0.921 | – | 0.913 | 0.834 | 0.832
S. pneumoniae D39V [1], first compound 0.8 µg/mL | – | – | 0.829 | – | 0.797 | 0.539 | 0.391

Conditions | Bliss interaction score
B. subtilis 168 [4] | 0.0195
S. aureus DSM 20231 | -0.0827
S. aureus Newman | -0.0223
S. pneumoniae D39V [3] | 0.0593
